Source: patent US20090130759A1, “Culture Medium Containing Kinase Inhibitor, and Use Thereof” (The University Court of the University of Edinburgh, priority 2005, published 2009)

How the values were obtained:
mouse and human ES cells = test: Attempt to repeat reported effects of GSK3 inhibitor on ES cells (Sato et al); assay type: cell-based; conditions: attempted repeat of published results
Description: Sato N, et al, Nat. Med. 2004, January 10(1) pp 55-63 describe the effects of a Glycogen Synthase Kinase 3 (GSK3) inhibitor, 6-bromoindirubin-3′-oxime, on mouse and human ES cells in serum containing medium. These effects, however, were observed only over a very short time frame, too short for firm conclusions to be drawn, and the influence of unknown factors in the undefined media used in that study may be significant.
Instead, ES cells died or differentiated in GSK-3β inhibitors alone.

mouse ES cells = test: Self-renewal culture of mouse ES cells with GSK3 inhibitor and gp130 signalling (LIF); assay type: cell-based; conditions: for promotion of self renewal of ES cells: GSK3 inhibitor used in ES cell culture
Description: (§1) Mouse and human ES cells were grown under various conditions, using N2B27 medium unless otherwise stated and in the presence or absence of the GSK-3β inhibitors CHIR99021, AR-AO144-18, SB216763 and SB415286.
N2 100× stock solution. For 10 ml: mix 1 ml insulin (final concentration 2.5 mg/ml) with 1 ml apo-transferrin (final concentration 10 mg/ml), 0.67 ml BSA (final concentration 5 mg/ml), 33 μl progesterone (final concentration […]), 100 μl putrescine (final concentration 1.6 mg/ml), 10 μl sodium selenite (final concentration 3 μM) and 7.187 ml DMEM/F12. Store at 4° C. and use within 1 month.
DMEM/F12-N2 medium: to 100 ml of DMEM/F12, add 1 ml of N2 100× stock solution. The final concentration of each component of N2 in the DMEM/F12 medium is: insulin, 25 μg/ml; apo-transferrin, 100 μg/ml; progesterone, 6 ng/ml; putrescine, 16 μg/ml; sodium selenite, 30 nM; BSA 50 μg/ml. Store at 4° C. and use within 1 month.
Neurolbasal/B27 medium: to 100 ml of Neurolbasal™ Medium, add 2 ml of B27 and 0.5-1 ml of 200 mM L-glutamine. Store at 4° C. and use within 1 month.
(§2) N2B27 medium: mix DMEM/F12-N2 medium with Neurolbasal/B27 medium in the ratio of 1:1. Add β-mercaptoethanol to a final concentration of 0.1 mM from the 0.1M stock. Store at 4° C. and use within 1 month.

GSK3 = conditions: cited from earlier work
human ES cells [1] = test: Human ES cell self-renewal in N2B27 medium on feeder cells; assay type: cell-based
Description: as §2
a) N2B27 medium with bFGF (10 ng/ml) and grown on feeder cells (HS27 human foreskin fibroblasts); and b) the same as a) but adding BMP4 (5 ng/ml) and LIF (10 ng/ml) as well as bFGF.

human ES cells [2] = test: Feeder-free, conditioned medium-free culture of human ES cells after forced expression of an Eras gene; assay type: cell-based
Description: as §1, §2
a) in N2B27 medium with bFGF, grown on laminin, fibronectin, vitronectin or matrigel; b) the same as a) but adding BMP4 (5 ng/ml) as well as bFGF; and c) the same as a) but adding a GSK-3β inhibitor as well as bFGF.

[3] = N2B27, feeder cells, BMP4 (5 ng/ml) and LIF (10 ng/ml) added as well as bFGF

**Q.** With `O=C1Nc2cc(Br)ccc2/C1=C1/Nc2ccccc2/C1=N\O` [6-bromoindirubin-3′-oxime] as the molecule, how does the “effects on mouse and human ES cells versus those described by Sato et al” value (mouse and human ES cells) read?
**A.** effects opposite to those described

**Q.** Which “promotion of self renewal of ES cells” value (mouse ES cells) does the source give for `COc1ccc(CNC(=O)Nc2ncc([N+](=O)[O-])s2)cc1` [AR-AO144-18] here?
**A.** promote self renewal of ES cells

**Q.** For `Cc1c[nH]c(-c2cnc(NCCNc3ccc(C#N)cn3)nc2-c2ccc(Cl)cc2Cl)n1` [CHIR 99021], which “overall result of use in ES cell culture” value (mouse ES cells) is on record?
**A.** Good results

**Q.** And the “promotion of self renewal of ES cells” value (mouse ES cells)?
**A.** promote self renewal of ES cells

**Q.** And the “E14.1A ES cells weaned off feeder cells (FIG. 1)” value (mouse ES cells; LIF+CHIR99021 with serum)?
**A.** weaned off feeder cells and grown

**Q.** What about the “self renewal of mouse ES cells” value (mouse ES cells; combination with LIF in a serum-free, fully defined medium) of the same molecule?
**A.** improved self renewal of mouse ES cells with very little differentiation

**Q.** What about the “specificity for GSK3” value (GSK3) of the same molecule?
**A.** specific for GSK3

**Q.** With `Cn1cc(C2=C(c3ccc(Cl)cc3Cl)C(=O)NC2=O)c2ccccc21` [SB216763] as the molecule, how does the “promotion of self renewal of ES cells” value (mouse ES cells) read?
**A.** promote self renewal of ES cells

**Q.** For `O=C1NC(=O)C(c2ccccc2[N+](=O)[O-])=C1Nc1ccc(O)c(Cl)c1` [SB415286], which “promotion of self renewal of ES cells” value (mouse ES cells) is on record?
**A.** promote self renewal of ES cells

**Q.** Which results are given for CHIR 98014?
**A.** overall result of use in ES cell culture (mouse ES cells): Good results; promotion of self renewal of ES cells (mouse ES cells): promote self renewal of ES cells; specificity for GSK3 (GSK3): specific for GSK3

**Q.** For LIF: gp130 receptor binding cytokine, which “sustaining human ES cell self-renewal” value (human ES cells [1]; [3]) is on record?
**A.** could sustain human ES cell self-renewal

**Q.** What does the source list for bFGF: FGF receptor agonist?
**A.** sustaining human ES cell self-renewal (human ES cells [1]; N2B27 medium with bFGF (10 ng/ml), on HS27 human foreskin fibroblast feeder cells): could sustain human ES cell self-renewal; growth of human ES cells in feeder-free, conditioned medium-free conditions (human ES cells [2]; N2B27 with bFGF, on laminin, fibronectin, vitronectin or matrigel): grew in feeder-free and conditioned medium-free conditions

B1: BMP4: agonist of the TGF-β superfamily (protein, UniProt P12644 293-408, looked up)
Bone morphogenetic protein 4: SPKHHSQRARKKNKNCRRHSLYVDFSDVGWNDWIVAPPGYQAFYCHGDCPFPLADHLNSTNHAIVQTLVNSVNSSIPKACCVPTELSAISMLYLDEYDKVVLKNYQEMVVEGCGCR
**Q.** With B1 as the molecule, how does the “sustaining human ES cell self-renewal” value (human ES cells [1]; [3]) read?
**A.** could sustain human ES cell self-renewal

**Q.** What about the “growth of human ES cells in feeder-free, conditioned medium-free conditions” value (human ES cells [2]; N2B27 with BMP4 (5 ng/ml) as well as bFGF) of the same molecule?
**A.** grew in feeder-free and conditioned medium-free conditions
